Assays:
MP2 tumor cells [1] = system: MP2 tumor cells
PL-12 tumor cells [2] = assay: Cell death assay (PI staining, flow cytometry); type: cell-based, human; settings: 25-100 μM, 24-48 hours
tumors = settings: cited from earlier work
OSCCs [3] = system: OSCCs
OSCSCs [4] = settings: 24 hours, up to 50 μM
MP2 tumor cells [5] = assay: Cell count of viable cells (Trypan Blue, light microscope); type: cell-based, human; settings: different concentrations of WIN 55,212-2, 24-48 hours
Description: (§1) The number of viable cells was counted under light microscope using Trypan Blue staining. Compiled data from three experiments performed is shown.
(§2) The number of viable cells was counted under light microscope using Trypan Blue staining (Sigma, MO, USA).

PL-12 tumor cells [6] = assay: as above; type: cell-based, human; settings: different concentrations of WIN 55,212-2, 24-48 hours
Description: as §1, §2

NK cells = assay: NK cell cytotoxicity in humanized BLT mice (4-hr Chromium release assay); type: in vivo; settings: hu-BLT mice, every 2 days for 3 weeks; WIN 55,212-2 2 mg/kg IP; IL-15 5 μg/mice IP; preliminary experiments
Experimental: Humanized BLT mice (hu-BLT; human-bone marrow/liver/thymus) were fed with, AJ2 (5×10^9 CFU/mice, every 2 days, Oral administration), WIN 55,212-2 (2 mg/kg, every 2 days, IP) and/or IL-15 (5 μg/mice, every 2 days, IP). After 3 weeks of treatment, immune cells were collected from peripheral blood, bone marrow and spleen, and CD3+ T cells were isolated from splenocytes with EasySep™ Human CD3 positive selection kit II (StemCell Tech.). PBMCs (0.5×10^6 cells) obtained from the peripheral blood were treated with IL-2 (1000 U/ml) and/or anti-CD16 antibody (BioLegend) (3 μg/ml) for 3 days, after which the cells were counted and different numbers of E:T ratios were used for the assessment of cytotoxicity using 4-hr Chromium release assay (FIG. 1A and FIG. 1B). The percentage specific cytotoxicity was calculated using the following formula (% cytotoxicity=(Experimental cpm/spontaneous cpm)/(total cpm−spontaneous cpm)) and the lytic unit 30 (Lu30/10^6) was calculated by using the inverse of the number of effector cells needed to lyse 30% of tumor target cells×100. Killing per % NK cells was determined by dividing the total Lytic unit 30 by the percentage of NK cells in each sample (FIG. 1A and FIG. 1B). […]

OSCSCs [7] = assay: Microscopy of morphology and viability; type: cell-based, human; settings: WIN 55,212-2, even at the lowest concentrations, 24 h
Experimental: (§3) Chemical structure of WIN 55,212-2 (FIG. 7A). […] OSCCs and OSCSCs were treated with CDDP (50 μg/mL) and different concentrations of WIN 55,212-2 for 24 hours before the microscopic images were taken. Scale bar=50 μm (FIG. 7B).

OSCCs [8] = assay: Microscopy of morphology and viability; type: cell-based, human
Experimental: as §3

PL-12 tumor cells [9] = settings: 48 h, 25-100 μM
MP2 tumor cells [10] = assay: Microscopy of morphology and viability; type: cell-based, human; settings: different concentrations of WIN 55,212-2, 24 hours
Experimental: (§4) MP2 and PL-12 tumor cells were treated with CDDP (50 μg/mL) and different concentrations of WIN 55,212-2 for 24 hours before the microscopic images were taken. Scale bar=50 μm.

PL-12 tumor cells [11] = assay: Microscopy of morphology and viability; type: cell-based, human; settings: different concentrations of WIN 55,212-2, 24 hours
Experimental: as §4

[12] = vs untreated controls, 24 hours, up to 50 μM

CS(=O)(=O)O.Cc1c(C(=O)c2cccc3ccccc23)c2cccc3c2n1[C@H](CN1CCOCC1)CO3 [WIN 55,212-2, (R)-(+)-[2,3-Dihydro-5-methyl-3-(4-morpholinylmethyl)pyrrolo[1,2,3-de]-1,4-benzoxazin-6-yl]-1-naphthalenylmethanone mesylate]
cell surface expression of CD44 (MP2 tumor cells [1]; 48 h, 25-100 μM): Decreased cell surface expression | cell surface expression of CD54 (MP2 tumor cells [1]; 48 h, 25-100 μM): decreased the expression | cell surface expression of MHC class I (MP2 tumor cells [1]; 48 h, 25-100 μM): decreased on MP2 tumor cells | cell surface expression of PD-L1 (MP2 tumor cells [1]; 48 h, 25-100 μM): decreased in MP2 tumor cells | extent of decrease in all surface receptor expressions, MP2 compared with PL-12 (MP2 tumor cells [1]; after WIN 55,212-2 treatments): significantly greater | percentages of dead cells (PI staining) (PL-12 tumor cells [2]): up to 20% | migration and invasion of tumors (tumors; previously reported in several studies): inhibiting | anti-tumor effect, mechanism (tumors; previously reported): inducing caspase-independent apoptosis | decrease in cell surface MHC class I expression, OSCCs compared with OSCSCs (OSCCs [3]; after WIN 55,212-2 treatment): Significantly greater decrease | cell surface expression of CD44 (OSCCs [3]; [12]): Decreased expression | cell surface expression of CD54 (OSCCs [3]; [12]): Decreased expression | cell surface expression of MHC class I (OSCCs [3]; [12]): Decreased expression | cell surface expression of PD-L1 (OSCCs [3]; [12]): Decreased expression | cell surface expression of CD44 (OSCSCs [4]): decreased | cell surface expression of CD54 (OSCSCs [4]): decreased | cell surface expression of MHC class I (OSCSCs [4]): remained unchanged | cell surface expression of PD-L1 (OSCSCs [4]): decreased | decreased numbers of viable cells (MP2 tumor cells [5]): 60-85% | decreased numbers of viable cells (PL-12 tumor cells [6]): 50-70% | cytotoxic function of NK cells in PBMC (NK cells): increased the cytotoxic function of NK cells | morphology and attachment (OSCSCs [7]): became detached from the culture plates | morphology and viability (OSCCs [8]; 50 μM or higher concentrations of WIN 55,212-2, 24 h): some of the OSCCs still remained viable but others rounded up and detached and were not viable | morphology and viability (OSCCs [8]; low concentrations of WIN 55,212-2, 24 h): remained viable | cell surface expression of CD44 (PL-12 tumor cells [9]): Decreased cell surface expression | cell surface expression of CD54 (PL-12 tumor cells [9]): decreased the expression | cell surface expression of MHC class I (PL-12 tumor cells [9]): increased on PL-12 tumor cells | cell surface expression of PD-L1 (PL-12 tumor cells [9]): increased in PL-12 | morphology and viability (MP2 tumor cells [10]): largely lost their shape and morphology | morphology and viability (PL-12 tumor cells [11]): maintained their morphology and remained viable

From patent publication US20250332180A1, “CANNABINOIDS AND IL-15 ACTIVATE NK CELLS” (The Regents of the University of California, priority 2022, published 2025)
